# Assay results from patent publication US11534457B2, “Use of dextran sulfate” (priority 2017, dated 2022).
# Tested on: closed-head diffuse severe TBI (sTBI)
# Assay: sTBI in rats, dose study, HPLC of energy metabolites, antioxidants, oxidative/nitrosative stress biomarkers, NAA (Example 7)
# Assay type: in vivo, Male Wistar rats
# Procedure: Male Wistar rats (n=160) of 300-350 g body weight were used in this study. They were fed with standard laboratory diet and water ad libitum in a controlled environment.
# As the accepted anesthetic mixture, animals received 35 mg/kg b.w. ketamine and 0.25 mg/kg body weight midazolam by intramuscular injection. Diffuse sTBI was induced according to the “weight drop” impact acceleration model set up by Marmarou et al. J. Neurosurg. 1994, 80: 291-300. This model causes diffuse axonal injury and it is able to reproduce the physical and mechanical characteristics of the diffuse TBI in humans.
# Severe TBI was induced by dropping a 450 g weight from 2 meters height onto the rat head protected by a helmet (metal disk previously fixed on the skull using dental cement) in order to uniformly distribute the mechanical force to the brain. Rats were placed prone on a bed of specific polyurethane foam inserted in a special container; this foam dissipates the major part of the potential energy (deriving from the mechanical forces) and prevents any rebound of the animal after the impact that could produce spinal damages.
# After 2 or 7 days from TBI induction, rats were anesthetized again and then immediately sacrificed. These time points are coincident with the worst biochemical derangement (2 days) or, in the case of a mildly injured brain, with a full metabolic recovery (7 days).
# The drug treatment consisted in a subcutaneous injection of 0.5 ml of LMW-DS (Tikomed) and administered at 3 different concentrations (1, 5 and 15 mg/kg body weight), according to the schematic protocol described below.
# Rats subjected to sTBI and receiving a single administration of LMW-DS after 30 minutes post-TBI, with sacrifice at 2 days post-TBI. Animals were divided in the following subgroups: • 1. 12 animals subjected to sTBI and treated with 1 mg/kg b.w. LMW-DS • 2. 12 animals subjected to sTBI and treated with 5 mg/kg b.w. LMW-DS • 3. 12 animals subjected to sTBI and treated with 15 mg/kg b.w. LMW-DS
# Rats subjected to sTBI and receiving a single administration of LMW-DS after 30 minutes post-TBI, with sacrifice at 7 days post-TBI. Animals were divided in the following subgroups: • 1. 12 animals subjected to sTBI and treated with 1 mg/kg b.w. LMW-DS • 2. 12 animals subjected to sTBI and treated with 5 mg/kg b.w. LMW-DS • 3. 12 animals subjected to sTBI and treated with 15 mg/kg b.w. LMW-DS
# Rats (n=12) subjected to sTBI and receiving repeated administrations of the maximal dose of LMW-DS (15 mg/kg b.w.) after 30 minutes, 3 days and 5 days post-TBI, with sacrifice at 7 days post-TBI. Four additional rats were used for the histo-morphological studies. Total rats in this group: n=16
# To minimize metabolite loss, an in vivo craniectomy was performed in all animals during anesthesia. The rat skull was carefully removed, the brain was exposed, sharply cut along the sagittal fissure and the two hemispheres were separated. The hemispheres dedicated to biochemical analyses were freeze-clamped by aluminum tongues pre-cooled in liquid nitrogen and then immersed in liquid nitrogen. The freeze-clamping procedure was introduced to accelerate freezing of the tissue, thus minimizing potential metabolite loss.
# Tissue homogenization for metabolite analyses was effected as described below. After the wet weight (w.w.) determination, the frozen hemispheres were placed into 7 ml of ice-cold, nitrogen-saturated, precipitating solution (1:10 w/v) composed by CH3CN+10 mM KH2PO4, pH 7.40, (3:1; v:v), and the homogenization was performed using an Ultra-Turrax homogenizer set at 24,000 rpm/min (Janke & Kunkel, Staufen, Germany). After centrifugation at 20,690×g, for 10 min at 4° C., the clear supernatants were saved, pellets were supplemented with an aliquot of 10 mM KH2PO4 and homogenized again as described above and saved overnight at −20° C. in order to obtain a complete recovery of aqueous phase from tissue. […]
# [1] = 1 mg/kg s.c. single, 30 min post-sTBI, sacrifice 2 days
# [2] = 15 mg/kg s.c. single, 30 min post-sTBI, sacrifice 2 days
# [3] = 2 days post sTBI, 5 or 15 mg/kg b.w.
# [4] = rats, 7 days post-sTBI, single administration of 15 mg/kg b.w.
substance,measurement,setting,value
low molecular weight dextran sulfate [LMW-DS],"CDP choline, brain concentration",[1],8.23 ± 1.22 nmol/g w.w.
same,"GDP Glucose, brain concentration",[1],65.66 ± 41.61 nmol/g w.w.
same,"UDP-Glc, brain concentration",[1],45.14 ± 6.68 nmol/g w.w.
same,"UDP-GlcNac, brain concentration",[1],96.62 ± 8.80 nmol/g w.w.
same,"NAD^+/NADH ratio, brain","1 mg/kg s.c. single, 30 min post-sTBI, sacrifice 2 days, adimensional",33.91 ± 9.32
same,"NAD^+/ADH, brain","1 mg/kg s.c. single, 30 min post-sTBI, sacrifice 7 days",33.91 ± 9.32
same,"GDP Glucose, brain concentration","5 mg/kg s.c. single, 30 min post-sTBI, sacrifice 2 days",83.81 ± 37.35 nmol/g w.w.
same,"CYTIDINE, brain concentration",[2],11.46 ± 2.07 nmol/g w.w.
same,"GDP Glucose, brain concentration",[2],84.24 ± 37.54 nmol/g w.w.
same,"UDP-Glc, brain concentration",[2],43.41 ± 06.43 nmol/g w.w.
same,"β-PSEUDOURIDINE, brain concentration",[2],7.84 ± 1.57 nmol/g w.w.
same,ascorbic acid and reduced glutathione (GSH),2 days post sTBI,significantly ameliorated
same,cerebral tissue nitrites and nitrates,2 days post sTBI,evident decrease
same,concentrations of UTP and ADP,2 days post sTBI,No effects
same,de-phosphorylated purines and pyrimidines,2 days post sTBI,positively affected
same,nicotinic coenzyme pool and NAD/NADH ratio,"2 days post sTBI, 15 mg/kg b.w.",effective only at the maximal dose tested
same,Acetyl-CoA,[3],partial rescue
same,whole brain NAA,[3],significantly higher than values found in sTBI rats
same,"high energy phosphates (ATP, GTP, and CTP) vs sTBI","2 days post sTBI, all three dosages (1, 5, 15 mg/kg)",Significantly higher values
same,"ATP level, lower than the value of controls",7 days post impact (untreated sTBI 35%),16%
same,"NAA concentration, lower than the value of controls",7 days post impact (untreated sTBI 48%),16%
same,de-phosphorylated purines and pyrimidines,7 days post sTBI,positively affected
same,CoA-SH and Acetyl-CoA,"7 days post sTBI, 5 or 15 mg/kg b.w. (single and repeat)",Remarkable positive effects
same,ATP,"7 days post sTBI, any dose tested",significant increases
same,concentrations of nicotinic coenzymes,"7 days post sTBI, excluding the lowest dose",significant improvement
same,"ascorbic acid and GSH, with decrease of nitrites and nitrates","7 days post sTBI, highest single and repeat dose",particularly beneficial
same,ATP/ADP ratio,"7 days post sTBI, increasing dose",progressively increased
same,whole brain NAA,"7 days post sTBI, increasing single doses or repeat maximal dose",dose dependent increase
same,cerebral energy metabolism,"7 days post sTBI, more evident above 1 mg/kg b.w.",general improvement
same,NAD+ level and NAD/NADH ratio,"7 days post sTBI, single and repeat 15 mg/kg b.w.",able to normalize NAD+ level and to restore the correct NAD/NADH ratio
same,ADENOSINE concentration in deproteinized brain homogenates,"rats, 7 days post-sTBI, repeated administration of 15 mg/kg b.w.",40.84 ± 30.25 nmol/g w.w.
same,GMP concentration in deproteinized brain homogenates,"rats, 7 days post-sTBI, single administration of 1 mg/kg b.w.",113.06 ± 53.51 nmol/g w.w.
same,ADENOSINE concentration in deproteinized brain homogenates,[4],55.95 ± 41.44 nmol/g w.w.
same,CDP choline concentration in deproteinized brain homogenates,[4],10.06 ± 3.23 nmol/g w.w.
